How the values were obtained:
[1] = test system: obese female Zucker rats; assay: Oral daily treatment of obese female Zucker rats for fourteen days; format: in vivo, rat; settings: 14 days; for Glucose, Percent Change from Pre-treatment: blood, 6-hour fast; for Glucose, Percent Change from Pre-treatment / BHA, Percent Change from Pre-treatment / HDL-C, Percent Change from Pre-treatment / Insulin, Percent Change from Pre-treatment / NEFA, Percent Change from Pre-treatment / Non HDL-C, Percent Change from Pre-treatment / TC, Percent Change from Pre-treatment / TG, Percent Change from Pre-treatment: oral daily; for % wt. gain / HDL-C/non HDL-C: oral gavage daily; for BHA, Percent Change from Pre-treatment / HDL-C, Percent Change from Pre-treatment / Insulin, Percent Change from Pre-treatment / NEFA, Percent Change from Pre-treatment / Non HDL-C, Percent Change from Pre-treatment / TC, Percent Change from Pre-treatment / TG, Percent Change from Pre-treatment: serum
Description: In a number of different experiments, compounds described in Table 1 were administered daily to 11-13 week old chow fed obese female Zucker rats for 14 days in the morning by oral gavage in 20% ethanol/80% polyethylene glycol-200 (dosing vehicle)(“EP”). The dosing vehicle was administered to control animals in parallel experiments.
Body weight was determined daily prior to dosing. Animals were allowed free access to rodent chow and water throughout the study. Blood glucose was determined after a 6-hour fast in the afternoon without anesthesia from a tail vein. Serum was also prepared from a blood sample subsequently obtained from the orbital venous plexus (with O2/CO2 anesthesia) prior to and after one week treatment and used lipid and insulin determinations. At two weeks, blood glucose was again determined after a 6-hour fast without anesthesia from a tail vein. Soon thereafter, animals were sacrificed by CO2 inhalation in the afternoon and cardiac blood serum was collected and assessed for various lipids and insulin.

[2] = test system: primary rat hepatocytes; assay: Synthesis of total lipids (14C-acetate labeling) in primary rat hepatocytes; format: cell-based; settings: Hepatocyte, 14C-acetate labeling 4 hr at 37° C., 1-300 μM, read-out: IC50, total lipid synthesis
Description: A male Sprague-Dawley rate was anesthetized by administration of sodium pentobarbitol by intraperitoneal at 80 mg/kg. In situ perfusion of the liver was performed as follows. The abdomen of the animal was opened, the portal vein canulated, and the liver perfused with WOSH solution (149 mM NaCl, 9.2 mM Na HEPES, 1.7 mM Fructose, 0.5 mM EGTA, 0.029 mM Phenol red, 10 U/ml heparin, pH 7.5) at a flow rate of 30 ml/min for 6 minutes. To digest the liver, DSC solution (6.7 mM KCl, 143 mM NaCl, 9.2 mM Na HEPES, 5 mM CaCl2-2H2O, 1.7 mM Fructose, 0.029 mM Phenol red, 0.2% BSA, 100 U/ml collagenase Type I, 160 BAEE/ml trypsin inhibitor, pH 7.5) was perfused through the liver at a flow rate of 30 ml/min for 6 minutes at a temperature of 37° C. After digestion, cells were dispersed in a solution of DMEM-(DMEM containing 2 mM GlutMax-1, 0.2% BSA, 5% FBS, 12 nM insulin, 1.2 μM hydrocortisone) to stop the digestion process. The crude cell suspension was filtered through three layers of stainless steel mesh with pore sizes of 250, 106, and 75 μm respectively. Filtered cells were centrifuged at 50×g for two minutes and the supernatant discarded. The resulting cell pellet was resuspended in DMEM and centrifuged again. […]

SMILES | melting point | Glucose, Percent Change from Pre-treatment ([1]; 100 mg/kg/day) | % wt. gain ([1]; 100 mg/kg/day) | HDL-C/non HDL-C ([1]; 100 mg/kg/day) | BHA, Percent Change from Pre-treatment ([1]; 100 mg/kg/day) | HDL-C, Percent Change from Pre-treatment ([1]; 100 mg/kg/day) | Insulin, Percent Change from Pre-treatment ([1]; 100 mg/kg/day) | NEFA, Percent Change from Pre-treatment ([1]; 100 mg/kg/day) | Non HDL-C, Percent Change from Pre-treatment ([1]; 100 mg/kg/day) | TC, Percent Change from Pre-treatment ([1]; 100 mg/kg/day) | TG, Percent Change from Pre-treatment ([1]; 100 mg/kg/day) | Glucose, Percent Change from Pre-treatment ([1]; 30 mg/kg/day) | % wt. gain ([1]; 30 mg/kg/day) | HDL-C/non HDL-C ([1]; 30 mg/kg/day) | BHA, Percent Change from Pre-treatment ([1]; 30 mg/kg/day) | HDL-C, Percent Change from Pre-treatment ([1]; 30 mg/kg/day) | Insulin, Percent Change from Pre-treatment ([1]; 30 mg/kg/day) | NEFA, Percent Change from Pre-treatment ([1]; 30 mg/kg/day) | Non HDL-C, Percent Change from Pre-treatment ([1]; 30 mg/kg/day) | TC, Percent Change from Pre-treatment ([1]; 30 mg/kg/day) | also measured
CCCCCOc1cc(C)c(NC(=O)C(O)C(C)(C)CO)c(C)c1 (centres unmarked) [AA, N-(2,6-dimethyl-4-pentyloxy-phenyl)-2,4-dihydroxy-3,3-dimethyl-butyramide] | 101 to 102.5 °C | 10% | 11% | 3 | 51% | 87% | −10% | −30% | −17% | 41% | −38% |  |  |  |  |  |  |  |  |  | 
CC(C)(CO)[C@H](O)C(=O)NCCNC(=O)[C@H](O)C(C)(C)CO [Compound V1, (R,S)-N-[2-(2,4-Dihydroxy-3,3-dimethylbutyrylamino)-ethyl]-2,4-dihydroxy-3,3-dimethyl-butyramide] |  | −3% | 11% | 1 | 63% | 77% | −20% | 7% | 6% | 34% | 22% |  |  |  |  |  |  |  |  |  | 
CC(C)(CO)C(O)C(=O)NCCNC(=O)C(O)C(C)(C)CO (racemic) [Compound V2, N-[2-(2,4-Dihydroxy-3,3-dimethylbutyrylamino)-ethyl]-2,4-dihydroxy-3,3-dimethylbutyramide] |  |  |  |  |  |  |  |  |  |  |  | −8% | 10% | 2 | 58% | −20% | −53% | −23% | 23% | −13% | TG, Percent Change from Pre-treatment ([1]; 30 mg/kg/day): 36%
Cc1cc(OCCCCC(C)(C)CO)cc(C)c1NC(=O)C(O)C(C)(C)CO (centres unmarked) [Compound AC, 2,4-dihydroxy-N-[4-(6-hydroxy-5,5-dimethyl-hexyloxy)-2,6-dimethyl-phenyl]-3,3-dimethyl-butyramide] |  |  |  |  |  |  |  |  |  |  |  |  |  |  |  |  |  |  |  |  | IC50 [2]: 2.1 µM
CC(C)(CO)[C@@H](O)C(=O)NCCNC(=O)[C@H](O)C(C)(C)CO [Compound V3, (R,R)-N-[2-(2,4-Dihydroxy-3,3-dimethylbutyrylamino)-ethyl]-2,4-dihydroxy-3,3-dimethylbutyramide] | 124.8 to 124.9 °C |  |  |  |  |  |  |  |  |  |  | 3% | 9% | 2 | 69% | 7% | 11% | −16% | 16% | 9% | TG, Percent Change from Pre-treatment ([1]; 30 mg/kg/day): 14%
CC(C)(CO)C(O)C(=O)NCc1cccnc1 (centres unmarked) [AB, 2,4-Dihydroxy-3,3-dimethyl-N-pyridin-3ylmethyl-butyramide] | 120 to 121.5 °C |  |  |  |  |  |  |  |  |  |  |  |  |  |  |  |  |  |  |  | 
CC(C)(CO)C(O)C(=O)NCCOCCNC(=O)C(O)C(C)(C)CO (centres unmarked) [U, N-{2-[2-(2,4-Dihydroxy-3,3-dimethylbutyrylamino)-ethoxy]-ethyl}-2,4-dihydroxy-3,3-dimethylbutyramide] |  | −3% | 9% | 2 | 254% | 14% | 6% | 13% | −2% | 8% | 1% |  |  |  |  |  |  |  |  |  | 
CC(C)(CO)[C@H](O)C(=O)NCCNC(=O)[C@@H](O)C(C)(C)CO [Compound V4] | 124.8 to 124.9 °C |  |  |  |  |  |  |  |  |  |  | 2% | 12% | 1 | 79% | 5% | 4% | −28% | 75% | 23% | TG, Percent Change from Pre-treatment ([1]; 30 mg/kg/day): 22%
